The values below come from ChEMBL document CHEMBL5614387, “Discovery of 2,4,6-trisubstituted pyrimidine derivatives as novel potent HIV-1 NNRTIs by exploiting the tolerant region II of the NNIBP” (Eur J Med Chem, 2024).

The subject of data set [1] is Human immunodeficiency virus 1. As to the kind of experiment: Antiviral activity against wild-type HIV-1 IIIB infected in human MT4 cells assessed as protection against virus-induced cytopathic effect by MTT assay. It is filed as functional, organism-based. The following applies: Human immunodeficiency virus 1, IIIB.
Data set [2] can be described thus: Cytotoxicity against human MT4 cells assessed as reduction in cell viability by MTT assay. Type of data set: toxicity, cell-based.
The nature of data set [3]: Selectivity index, ratio of CC50 for human MT4 cells to EC50 for wild-type HIV-1 IIIB infected in human MT4 cells. It is filed as toxicity, cell-based. The following applies: read-out: Ratio CC50/EC50.
Data set [4] has as its system Human immunodeficiency virus 1. As to the kind of experiment: Antiviral activity against HIV-1 harboring RT L100I mutant infected in human MT4 cells assessed as protection against virus-induced cytopathic effect by MTT assay. Type of data set: functional, organism-based. The following applies: Human immunodeficiency virus 1, MT4. On the technique in general: Damage to the host cells serves as the signal in cytopathic effect assays.

Data set [5] concerns Human immunodeficiency virus 1. In words: Antiviral activity against HIV-1 harboring RT K103N mutant infected in human MT4 cells assessed as protection against virus-induced cytopathic effect by MTT assay. Type of data set: functional, organism-based. The following applies: Human immunodeficiency virus 1, MT4.
For data set [6], the system named is Human immunodeficiency virus 1. As to the kind of experiment: Antiviral activity against HIV-1 harboring RT Y181C mutant infected in human MT4 cells assessed as protection against virus-induced cytopathic effect by MTT assay. Conditions: Human immunodeficiency virus 1, MT4. Type of data set: functional, organism-based.
Data set [7] relates to Human immunodeficiency virus 1. As to the kind of experiment: Antiviral activity against HIV-1 harboring RT Y188L mutant infected in human MT4 cells assessed as protection against virus-induced cytopathic effect by MTT assay. Type of data set: functional, organism-based. Conditions: Human immunodeficiency virus 1, MT4.
Data set [8] relates to Human immunodeficiency virus 1. In words: Antiviral activity against HIV-1 harboring RT E138K mutant infected in human MT4 cells assessed as protection against virus-induced cytopathic effect by MTT assay. Type of data set: functional, organism-based. The following applies: Human immunodeficiency virus 1, MT4.
Data set [9] concerns Human immunodeficiency virus 1. In words: Antiviral activity against HIV-1 harboring RT F227L/V106A mutant infected in human MT4 cells assessed as protection against virus-induced cytopathic effect by MTT assay. Type of data set: functional, organism-based. Conditions: Human immunodeficiency virus 1, MT4.
Data set [10] concerns Human immunodeficiency virus 1. In words: Antiviral activity against HIV-1 harboring RT RES056 mutant infected in human MT4 cells assessed as protection against virus-induced cytopathic effect by MTT assay. Type of data set: functional, organism-based. Conditions: Human immunodeficiency virus 1, MT4.
The target in data set [11] is Human immunodeficiency virus type 1 reverse transcriptase (Human immunodeficiency virus 1, UniProt Q72547). In words: Inhibition of wild-type HIV-1 reverse transcriptase incubated for 1 hr in presence of biotin-dUTP by ELISA. On the technique in general: In an ELISA, binding on a coated surface is turned into a signal by an enzyme label.

A value given as a limit tells only on which side of the number the result lay.

One may read the EC50 as the concentration giving half of the maximal effect. Usually CC50 stands for the concentration at which the toxic effect on the cells reaches its halfway point. The term IC50 denotes the point on the concentration scale where inhibition reaches its midpoint. For the compound `Cc1cc(C#N)cc(C)c1Oc1cc(-c2ccncc2)nc(NC2CCN(Cc3ccc(S(N)(=O)=O)cc3)CC2)n1`, the EC50 was 0.00362 µM in data set [1]; 0.0997 µM in data set [4]; 0.0106 µM in data set [5]; 0.0434 µM in data set [6]; 0.0586 µM in [7]; 0.0148 µM in [8]. Moreover, the EC50 turned out to be 0.0726 µM in [9] and 1.21 µM in data set [10]. Besides, the CC50 in data set [2] turned out to be 18.4 µM. Further, in [3], the selectivity ratio was 5080. The IC50 in data set [11] is 0.507 µM.
As for `Cc1cc(C#N)cc(C)c1Oc1cc(-c2cncnc2)nc(NC2CCN(Cc3ccc(S(N)(=O)=O)cc3)CC2)n1`, the EC50 in [1] is 0.00429 µM; in data set [4], 0.0398 µM; in [5] it was 0.013 µM; in data set [6] it was 0.026 µM; in data set [7], 0.055 µM; in data set [8] it was 0.0345 µM. In addition, the EC50 is 0.0634 µM in data set [9] and 0.916 µM in data set [10]. Moreover, the CC50 in [2] stood at 109 µM. In addition, the selectivity ratio in data set [3] was determined as 25400. Further, the 50% inhibitory concentration (IC50) in data set [11] came to 0.733 µM.
Consider `Cc1cc(C#N)cc(C)c1Oc1cc(-c2ccccc2)nc(NC2CCN(Cc3ccc(S(C)(=O)=O)cc3)CC2)n1`, for which the EC50 in [1] is 0.00468 µM; in [4], 0.0114 µM; in [5], 0.00682 µM; in [6] it was 0.0277 µM; in [7], 0.038 µM; in data set [8], 0.0325 µM. The values for the EC50 in data set [9] and in data set [10] were 0.026 µM and 0.229 µM, respectively. Besides, in [2], the CC50 was found to be 12.5 µM. The selectivity ratio in data set [3] was determined as 2670. For the same compound, in data set [11], the half-inhibitory concentration (IC50) was 0.231 µM.
As to `Cc1cc(C#N)cc(C)c1Oc1cc(-c2ccncc2)nc(NC2CCN(Cc3ccc(S(C)(=O)=O)cc3)CC2)n1`, the EC50 in data set [1] is 0.00407 µM; in [4] it was 0.0583 µM; in [5] it was 0.0101 µM; in data set [6], 0.0509 µM; in data set [7], 0.0615 µM; in data set [8], 0.0178 µM. The EC50 stood at 0.107 µM in data set [9] and 2.35 µM in [10]. The CC50 in data set [2] is 26.3 µM. Also, the selectivity ratio in data set [3] amounted to 6460. In addition, the IC50 in data set [11] was found to be 0.52 µM.
For the compound `Cc1cc(C#N)cc(C)c1Oc1cc(-c2cccnc2)nc(NC2CCN(Cc3ccc(S(N)(=O)=O)cc3)CC2)n1`, the EC50 in data set [1] is 0.00404 µM; in data set [4], 0.0312 µM; in data set [5] it was 0.0131 µM; in data set [6], 0.026 µM; in data set [7], 0.0365 µM; in data set [8], 0.0211 µM. In addition, the figures for the half-maximal effective concentration (EC50) in data set [9] and in data set [10] were 0.105 µM and 0.494 µM, respectively. The CC50 in [2] was 18.2 µM. In data set [3], the selectivity ratio is 4500. Also, the IC50 in data set [11] came to 0.461 µM.
Turning to `Cc1cc(C#N)cc(C)c1Oc1cc(-c2cccnc2)nc(NC2CCN(Cc3ccc(C(N)=O)cc3)CC2)n1`, the EC50 in data set [1] is 0.00361 µM; in data set [4], 0.0356 µM; in [5], 0.0112 µM; in data set [6], 0.0153 µM; in data set [7] it was 0.0376 µM; in data set [8], 0.0096 µM. Further, the EC50 in data set [9] was determined as 0.106 µM; in data set [10] it was 1.42 µM. Moreover, the cytotoxic concentration (CC50) in data set [2] turned out to be 17.2 µM. Moreover, the selectivity ratio in data set [3] was found to be 4760. Further, the IC50 in [11] was 0.428 µM.
`Cc1cc(C#N)cc(C)c1Oc1cc(-c2cccnc2)nc(NC2CCN(Cc3ccc(S(C)(=O)=O)cc3)CC2)n1`: the EC50 in data set [1] is 0.00412 µM; in data set [4], 0.0585 µM; in data set [5] it was 0.00901 µM; in data set [6], 0.0219 µM; in [7], 0.0366 µM; in [8], 0.0261 µM. Also, the EC50 in data set [9] amounted to 0.147 µM; in [10], 0.799 µM. The CC50 in data set [2] worked out at 20.6 µM. The selectivity ratio in data set [3] turned out to be 5000. Besides, the IC50 in data set [11] came to 0.607 µM.
With `Cc1cc(C#N)cc(C)c1Oc1cc(-c2cccs2)nc(NC2CCN(Cc3ccc(C(N)=O)cc3)CC2)n1`, the EC50 in data set [1] amounted to 0.00448 µM; in data set [4] it was 0.0202 µM; in [5], 0.00668 µM; in [6], 0.0305 µM; in data set [7], 0.0444 µM; in data set [8], 0.0361 µM. Also, the EC50 in data set [9] stood at 0.0634 µM; in [10] it was 0.399 µM. Besides, in data set [2], the CC50 turned out to be 19.3 µM. The selectivity ratio in [3] came to 4310. For the same compound, the IC50 in data set [11] was 0.299 µM.
Take `Cc1cc(C#N)cc(C)c1Oc1cc(-c2cncnc2)nc(NC2CCN(Cc3ccc(C(N)=O)cc3)CC2)n1`: the EC50 in data set [1] was found to be 0.00411 µM; in data set [4] it was 0.0768 µM; in data set [5], 0.0102 µM; in data set [6], 0.0246 µM; in data set [7], 0.0353 µM; in data set [8], 0.029 µM. In addition, the EC50 in data set [9] was found to be 0.279 µM; in data set [10] it was 1.06 µM. Also, the CC50 in [2] was 41.6 µM. The selectivity ratio in data set [3] stood at 10100. Further, in data set [11], the half-maximal inhibitory concentration (IC50) amounted to 0.601 µM.
Turning to `Cc1cc(C#N)cc(C)c1Oc1cc(-c2ccsc2)nc(NC2CCN(Cc3ccc(S(N)(=O)=O)cc3)CC2)n1`, the EC50 in [1] amounted to 0.00445 µM; in [4], 0.00983 µM; in [5], 0.00461 µM; in data set [6], 0.0371 µM; in [7], 0.0464 µM; in data set [8], 0.0424 µM. The EC50 in [9] came out at 0.0616 µM; in data set [10], 0.311 µM. Also, the CC50 in data set [2] came out at 14.8 µM. For the same compound, the selectivity ratio in [3] came out at 3330. Besides, the IC50 in data set [11] turned out to be 0.236 µM.
With `Cc1ccnc2c1NC(=O)c1cccnc1N2C1CC1` [NEVIRAPINE], the 50% cytotoxic concentration (CC50) in data set [2] is above 15 µM. Further, the selectivity ratio in [3] was above 73. The half-maximal effective concentration (EC50) in [4] was 3.13 µM; in data set [5], 8.25 µM; in [6], 9.21 µM; in [7], above 15 µM; in data set [8] it was 0.363 µM; in [9], above 15 µM. For the same compound, the EC50 in data set [10] was above 15 µM.
